Earlier results, collected in US5603954A (priority 1995, dated 1997).

Columns and labels:
[1] = metabolites appear after dosing in the plasma
[2] = test system: patients with chronic peripheral arterial disease

## CC(=O)CCCCn1c(=O)c2c(ncn2C)n(C)c1=O [pentoxifylline, 3,7-dihydro-3,7-dimethyl-1-(5-oxohexyl)-1H-purine-2,6-dione]
[1]
  first-pass effect: undergoes a first-pass effect
[2]
  blood flow to the affected microcirculation: increases the blood flow
  tissue oxygenation: enhances tissue oxygenation
